From PubChem BioAssay (NCI)
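Interpolation was linear, between the two tested concentrations surrounding the appropriate level; five concentrations were tested over 48 hours in 96-well plates. Abbreviation: GI50, concentration required for 50% inhibition of growth. TGI: concentration producing complete growth inhibition.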

Tests used:
Experiment in all cases: growth of human tumour cells (NCI), 48 h
M14 melanoma = test system: M14 melanoma
TK-10 renal = test system: TK-10 renal
HCT-15 colon = test system: HCT-15 colon
OVCAR-8 ovarian = test system: OVCAR-8 ovarian
A549 NSCLC = test system: A549 NSCLC
COLO 205 colon = test system: COLO 205 colon
LOX IMVI melanoma = test system: LOX IMVI melanoma
HS 578T breast = test system: HS 578T breast
BT-549 breast = test system: BT-549 breast
OVCAR-3 ovarian = test system: OVCAR-3 ovarian

| Compound | TGI (M14 melanoma) | TGI (TK-10 renal) | TGI (HCT-15 colon) | TGI (OVCAR-8 ovarian) | TGI (A549 NSCLC) | TGI (COLO 205 colon) | TGI (LOX IMVI melanoma) | TGI (HS 578T breast) | TGI (BT-549 breast) | TGI (OVCAR-3 ovarian) | GI50 (M14 melanoma) | GI50 (TK-10 renal) | GI50 (HS 578T breast) | GI50 (A549 NSCLC) | GI50 (OVCAR-3 ovarian) | GI50 (COLO 205 colon) | GI50 (LOX IMVI melanoma) | GI50 (BT-549 breast) | GI50 (HCT-15 colon) | GI50 (OVCAR-8 ovarian) |
| --- | --- | --- | --- | --- | --- | --- | --- | --- | --- | --- | --- | --- | --- | --- | --- | --- | --- | --- | --- | --- |
| CCCCCCCCC/C=C1\CCC(CN(C)C)C1=O (stereo not given) | 3.57 µM | 4.53 µM | 4.66 µM | 3.11 µM | 18 µM | 5.37 µM | 2.59 µM | – | – | – | – | – | – | – | – | – | – | – | – | – |
| Oc1c(Cl)c(Cl)c(O)c2c1CCCC2 | 32.5 µM | 9.14 µM | 29.7 µM | 46 µM | 72.6 µM | 3.74 µM | 78.6 µM | 49.2 µM | 28.1 µM | – | – | – | – | – | – | – | – | – | – | – |
| COc1cccc(NC(=O)CC(=O)N2N=C(n3ccc4ccccc43)CC2c2ccccc2)c1 (stereo not given) | > 100 µM | > 100 µM | > 100 µM | > 100 µM | > 100 µM | > 100 µM | > 100 µM | – | – | > 100 µM | – | – | – | – | – | – | – | – | – | – |
| COc1cccc(NC(=O)CC(=O)N2N=C(N3c4ccccc4Sc4ccccc43)CC2c2ccccc2)c1 (stereo not given) | > 100 µM | > 100 µM | > 100 µM | > 100 µM | > 100 µM | > 100 µM | > 100 µM | – | – | > 100 µM | – | – | – | – | – | – | – | – | – | – |
| O=C(O)C(CS)NCc1c2ccccc2nc2ccccc12 (stereo not given) | – | > 100 µM | > 100 µM | > 100 µM | > 100 µM | > 100 µM | > 100 µM | – | – | > 100 µM | – | – | – | – | – | – | – | – | – | – |
| Cc1nn(-c2ccc([N+](=O)[O-])cc2)c2ncnc(N/N=C/c3ccccc3O)c12 | 2.2 µM | 7.78 µM | – | – | 5.41 µM | 10.4 µM | 1.47 µM | 8.27 µM | > 42.4 µM | 1.56 µM | 299 nM | 0.942 µM | 1430 nM | 0.563 µM | 262 nM | 0.385 µM | 0.22 µM | 0.431 µM | – | – |
| N#Cc1nc2c(S(=O)(=O)c3ccc(Cl)cc3)c(N)n(CCCN3CCOCC3)c2nc1C#N | – | 23.6 µM | 27.1 µM | > 100 µM | 84.1 µM | 13.6 µM | 17.3 µM | 5.06 µM | 42 µM | 15.3 µM | – | 10.1 µM | 1760 nM | 19.5 µM | 3290 nM | 3.45 µM | 4.76 µM | 5.75 µM | 4.32 µM | 4.07 µM |
| [O-]c1ccccc1/C=N/C(/N=C/c1ccccc1[O-])c1ccccc1O.[O-]c1ccccc1/C=N/C(/N=C/c1ccccc1[O-])c1ccccc1O.[Zr+4] | > 100 µM | > 100 µM | > 100 µM | > 100 µM | > 100 µM | – | – | 60 µM | – | – | 46600 nM | 43.6 µM | 12500 nM | 40 µM | – | – | – | – | 50.3 µM | 26.7 µM |
| CC(=O)O[C@H]1CCC2[C@@H]3CCC4c5nonc5CC[C@]4(C)C3CC[C@@]21C (stereo not given in full) | > 10 µM | > 10 µM | > 10 µM | > 10 µM | > 10 µM | > 10 µM | > 10 µM | – | – | – | – | – | – | – | – | – | – | – | – | – |
| Nc1ncnc2c1c(-c1ccc(Oc3ccccc3)cc1)nn2C[C@@H]1SSC[C@H]1O | – | 3.16 µM | 7.31 µM | 14.3 µM | 4.69 µM | 7.48 µM | 1.74 µM | 11.2 µM | 11.6 µM | 9.76 µM | – | 1.49 µM | 2960 nM | 1.86 µM | 819 nM | 2.14 µM | 0.272 µM | 3.58 µM | 1.16 µM | 3.35 µM |
| CC(C)(c1ccccc1)c1ccc(Oc2ccc(C#N)c(C#N)c2)cc1 | > 100 µM | > 100 µM | – | > 100 µM | > 100 µM | > 100 µM | > 100 µM | – | – | – | – | > 100 µM | – | – | – | > 100 µM | > 100 µM | – | – | > 100 µM |
| CCc1ccccc1NC(=O)/C(N=O)=C(/C)O | > 100 µM | > 100 µM | > 100 µM | > 100 µM | > 100 µM | > 100 µM | > 100 µM | – | – | > 100 µM | – | – | – | – | – | – | – | – | – | – |
| O=S(=O)(/C=C/CS(=O)(=O)c1ccccc1)c1ccccc1 | 67.3 µM | > 100 µM | 45.6 µM | 32.5 µM | 60.8 µM | > 100 µM | 57.4 µM | – | – | 84.7 µM | – | – | – | – | – | – | – | – | – | – |
| COc1ccc(C(=O)/C=C/c2cccc(Nc3ccnc4cc(Cl)ccc34)c2)cc1 | > 100 µM | 4.59 µM | > 100 µM | – | > 100 µM | > 100 µM | 11.7 µM | > 100 µM | – | – | 1600 nM | 1.64 µM | 3180 nM | 2.78 µM | – | 3.85 µM | 1.58 µM | – | 2.04 µM | – |
| CN(C)C(=O)c1cnc2oc3ccc(O)cc3c2c1-c1ccccc1 | > 25 µM | > 25 µM | > 25 µM | > 25 µM | > 25 µM | – | > 25 µM | – | > 25 µM | > 25 µM | > 25000 nM | > 25 µM | – | > 25 µM | > 25000 nM | – | > 25 µM | 6.2 µM | > 25 µM | > 25 µM |
| Cc1nn(C)c(COc2ccc(N3CCN(S(=O)(=O)N(C)C)CC3)cc2)c1-c1cccc2c(CCCOc3cccc4ccccc34)c(C(=O)O)n(CCN3CCOCC3)c12 | 5.32 µM | 15.5 µM | 22.9 µM | 14.7 µM | 16.9 µM | 4.81 µM | 11.6 µM | 14.7 µM | – | 8.57 µM | 2280 nM | 3.47 µM | 2950 nM | 4.49 µM | 2720 nM | 2.1 µM | 3.16 µM | – | 7.62 µM | 3.51 µM |
| NC(=O)NC12CC3CC(CC(F)(C3)C1)C2 | > 100 µM | > 100 µM | – | > 100 µM | > 100 µM | > 100 µM | > 100 µM | – | – | > 100 µM | – | – | – | – | – | – | – | – | – | – |
| CC(=O)[CH-]C(=O)c1ccccc1.CC(=O)[CH-]C(=O)c1ccccc1.CC(=O)[CH-]C(=O)c1ccccc1.[In+3] | > 100 µM | > 100 µM | – | > 100 µM | > 100 µM | 85.4 µM | > 100 µM | – | – | > 100 µM | 26800 nM | > 100 µM | – | 48.8 µM | 78000 nM | 31.9 µM | 11 µM | – | – | 24.9 µM |
| O=C(NC(=Nc1ccccc1)SCCSC(=Nc1ccccc1)NC(=O)c1cccs1)c1cccs1 | > 100 µM | > 100 µM | > 100 µM | > 100 µM | > 100 µM | > 100 µM | > 100 µM | – | – | > 100 µM | – | – | – | – | – | – | – | – | – | – |
| CCN(CC)c1oc(N(CC)CC)c(C(=O)Nc2ccccn2)c(=O)c1C(C)=O | > 100 µM | > 100 µM | > 100 µM | > 100 µM | > 100 µM | > 100 µM | – | – | – | > 100 µM | – | – | – | – | – | – | – | – | – | – |
